≈ marks a conversion by molar mass, not a printed value.
Key:
Pseudomonas aeruginosa [1] = assay: Antimicrobial activity against Pseudomonas aeruginosa 2742 after 20 hrs by two-fold serial dilution technique; format: functional; conditions: Pseudomonas aeruginosa, 2742, 20 h
Escherichia coli [2] = assay: Antimicrobial activity against Escherichia coli CCARM 1356 after 20 hrs by two-fold serial dilution technique; format: functional; conditions: CCARM 1356, 20 h
Pseudomonas aeruginosa [3] = assay: Antimicrobial activity against Pseudomonas aeruginosa 2004 after 20 hrs by two-fold serial dilution technique; format: functional; conditions: Pseudomonas aeruginosa, 2004, 20 h
Staphylococcus aureus [4] = assay: Antimicrobial activity against quinolone-resistant Staphylococcus aureus clinical isolate 3505 after 20 hrs by two-fold serial dilution technique; format: functional; conditions: isolate 3505, 20 h
Staphylococcus aureus [5] = assay: Antimicrobial activity against Staphylococcus aureus 209 after 20 hrs by two-fold serial dilution technique; format: functional; conditions: Staphylococcus aureus, 209, 20 h
Staphylococcus aureus [6] = assay: Antimicrobial activity against quinolone-resistant Staphylococcus aureus clinical isolate 3519 after 20 hrs by two-fold serial dilution technique; format: functional; conditions: isolate 3519, 20 h
Staphylococcus aureus [7] = assay: Antimicrobial activity against methicillin-resistant Staphylococcus aureus clinical isolate 3506 after 20 hrs by two-fold serial dilution technique; format: functional; conditions: isolate 3506, 20 h
Escherichia coli [8] = assay: Antimicrobial activity against Escherichia coli KCTC 1924 after 20 hrs by two-fold serial dilution technique; format: functional; conditions: KCTC 1924, 20 h
Staphylococcus aureus [9] = assay: Antimicrobial activity against Staphylococcus aureus RN4220 after 20 hrs by two-fold serial dilution technique; format: functional; conditions: RN4220, 20 h
Salmonella typhimurium [10] = assay: Antimicrobial activity against Salmonella typhimurium 1926 after 20 hrs by two-fold serial dilution technique; format: functional, Salmonella enterica subsp. enterica serovar Typhimurium; conditions: Salmonella enterica, 1926, 20 h
Staphylococcus aureus [11] = assay: Antimicrobial activity against Staphylococcus aureus 503 after 20 hrs by two-fold serial dilution technique; format: functional; conditions: Staphylococcus aureus, 503, 20 h
Streptococcus mutans = assay: Antimicrobial activity against Streptococcus mutans 3065 after 20 hrs by two-fold serial dilution technique; format: functional; conditions: Streptococcus mutans, 3065, 20 h
Staphylococcus aureus [12] = assay: Antimicrobial activity against methicillin-resistant Staphylococcus aureus clinical isolate 3167 after 20 hrs by two-fold serial dilution technique; format: functional; conditions: isolate 3167, 20 h
Salmonella typhimurium [13] = assay: Antimicrobial activity against Salmonella typhimurium 2421 after 20 hrs by two-fold serial dilution technique; format: functional, Salmonella enterica subsp. enterica serovar Typhimurium; conditions: Salmonella enterica, 2421, 20 h
Candida albicans = assay: Antimicrobial activity against Candida albicans 7535 after 20 hrs by two-fold serial dilution technique; format: functional; conditions: Candida albicans, 7535, 20 h

Structure (SMILES)	MIC (Pseudomonas aeruginosa [1])	MIC (Escherichia coli [2])	MIC (Pseudomonas aeruginosa [3])	MIC (Staphylococcus aureus [4])	MIC (Staphylococcus aureus [5])	MIC (Staphylococcus aureus [6])	MIC (Staphylococcus aureus [7])	MIC (Escherichia coli [8])	MIC (Staphylococcus aureus [9])	MIC (Salmonella typhimurium [10])	MIC (Staphylococcus aureus [11])	MIC (Streptococcus mutans)	MIC (Staphylococcus aureus [12])	MIC (Salmonella typhimurium [13])	MIC (Candida albicans)
O=C1CSC(=S)N1Cc1nnc(-c2ccccc2Cl)o1	> 128 µg/mL	> 128 µg/mL	> 128 µg/mL	32 µg/mL (≈ 98.2 µM)	16 µg/mL (≈ 49.1 µM)	32 µg/mL (≈ 98.2 µM)	32 µg/mL (≈ 98.2 µM)	16 µg/mL (≈ 49.1 µM)	32 µg/mL (≈ 98.2 µM)	32 µg/mL (≈ 98.2 µM)	32 µg/mL (≈ 98.2 µM)	16 µg/mL (≈ 49.1 µM)	32 µg/mL (≈ 98.2 µM)	64 µg/mL (≈ 196 µM)	64 µg/mL (≈ 196 µM)
O=C1CSC(=S)N1[C@@H](Cc1ccccc1)c1nnc(-c2cccc(Cl)c2)o1	> 128 µg/mL	> 128 µg/mL	> 128 µg/mL	8 µg/mL (≈ 19.2 µM)	> 64 µg/mL	8 µg/mL (≈ 19.2 µM)	8 µg/mL (≈ 19.2 µM)	> 128 µg/mL	8 µg/mL (≈ 19.2 µM)	> 128 µg/mL	> 64 µg/mL	4 µg/mL (≈ 9.62 µM)	4 µg/mL (≈ 9.62 µM)	> 128 µg/mL	> 64 µg/mL
O=C1CSC(=S)N1Cc1nnc(-c2ccccc2F)o1	> 128 µg/mL	> 128 µg/mL	> 128 µg/mL	64 µg/mL (≈ 207 µM)	16 µg/mL (≈ 51.7 µM)	64 µg/mL (≈ 207 µM)	64 µg/mL (≈ 207 µM)	32 µg/mL (≈ 103 µM)	64 µg/mL (≈ 207 µM)	64 µg/mL (≈ 207 µM)	64 µg/mL (≈ 207 µM)	32 µg/mL (≈ 103 µM)	64 µg/mL (≈ 207 µM)	64 µg/mL (≈ 207 µM)	64 µg/mL (≈ 207 µM)
O=C1CSC(=S)N1Cc1nnc(-c2cccc(Cl)c2)o1	> 128 µg/mL	> 128 µg/mL	> 128 µg/mL	32 µg/mL (≈ 98.2 µM)	16 µg/mL (≈ 49.1 µM)	32 µg/mL (≈ 98.2 µM)	32 µg/mL (≈ 98.2 µM)	16 µg/mL (≈ 49.1 µM)	16 µg/mL (≈ 49.1 µM)	32 µg/mL (≈ 98.2 µM)	32 µg/mL (≈ 98.2 µM)	16 µg/mL (≈ 49.1 µM)	32 µg/mL (≈ 98.2 µM)	64 µg/mL (≈ 196 µM)	32 µg/mL (≈ 98.2 µM)
O=C(O)c1ccc(/C=C2\SC(=S)N([C@@H](Cc3ccccc3)c3nnc(-c4cccc(Br)c4)o3)C2=O)cc1	> 128 µg/mL	> 128 µg/mL	> 128 µg/mL	2 µg/mL (≈ 3.38 µM)	> 64 µg/mL	2 µg/mL (≈ 3.38 µM)	1 µg/mL (≈ 1.69 µM)	> 128 µg/mL	2 µg/mL (≈ 3.38 µM)	> 128 µg/mL	> 64 µg/mL	1 µg/mL (≈ 1.69 µM)	1 µg/mL (≈ 1.69 µM)	> 128 µg/mL	> 64 µg/mL
COc1c(N2CCNC(C)C2)c(F)cc2c(=O)c(C(=O)O)cn(C3CC3)c12 (stereo not given) [GATIFLOXACIN]	1 µg/mL (≈ 2.66 µM)	16 µg/mL (≈ 42.6 µM)	1 µg/mL (≈ 2.66 µM)	8 µg/mL (≈ 21.3 µM)	2 µg/mL (≈ 5.33 µM)	4 µg/mL (≈ 10.7 µM)	2 µg/mL (≈ 5.33 µM)	2 µg/mL (≈ 5.33 µM)	0.25 µg/mL (≈ 0.666 µM)	2 µg/mL (≈ 5.33 µM)	4 µg/mL (≈ 10.7 µM)	0.5 µg/mL (≈ 1.33 µM)	2 µg/mL (≈ 5.33 µM)	0.5 µg/mL (≈ 1.33 µM)	0.5 µg/mL (≈ 1.33 µM)
Cc1cccc(-c2nnc([C@H](Cc3ccccc3)N3C(=O)CSC3=S)o2)c1	> 128 µg/mL	> 128 µg/mL	> 128 µg/mL	8 µg/mL (≈ 20.2 µM)	> 64 µg/mL	8 µg/mL (≈ 20.2 µM)	8 µg/mL (≈ 20.2 µM)	> 128 µg/mL	8 µg/mL (≈ 20.2 µM)	> 128 µg/mL	> 64 µg/mL	4 µg/mL (≈ 10.1 µM)	8 µg/mL (≈ 20.2 µM)	> 128 µg/mL	> 64 µg/mL
